Data set [1] in a line: Solubility testing of peptides in buffer. Format: physicochemical.
Data set [2] can be described thus: Stability in human plasma. The format is in vitro ADME. As to conditions: 37° C.; for Human Plasma stability % remaining, T = 0: 5 μM; for remaining at 1 h, 5 μM / remaining at 4 h, 5 μM: human plasma (sodium or lithium heparin). As for the experimental part:
(§1) Prior to the testing of stability in plasma of a peptide batch, its purity (HPLC-UV) was determined.
(§2) Rat and Human plasma: anti-coagulant sodium or lithium heparin.
(§3) 100 μM solution of study compound in 50 mM Phosphate buffer pH 7.4.
(§4) 950 μL plasma is pre-incubated for 5 min at 37° C. 50 μL of compound stock solution is added. Final compound concentration=5 μM. Vortex and transfer 1504, plasma into an Eppendorf for each time point. The time points 0-1 and −4 h are carried out in duplicate for each species.
(§5) After incubation extract 1504, plasma with 6004, Acetonitrile containing with 1% TFA. Vortex and centrifuge 10 min at 14600 rpm. Dry 2004, supernatant under N2. Reconstitute sample in 200 μL of H2O/CH3CN 98/2+0.1% FA+50 ng/ml Labetalol and analyze using the analytical system used in solubility and stability studies.
(§6) For determination of the amount of the remaining peptide, the peak areas of the target compound at t0 and each time point […] were compared, resulting in “% remaining peptide”, following the equation
(§7) % remaining peptide=[(peak area peptide time)×100]/peak area peptide t0. The stability is expressed as “% remaining peptide”.

The nature of another data set: Stability in rat plasma. Format: in vitro ADME. The following applies: 37° C.; for Rat plasma stability % remaining, T = 0: 5 μM; for remaining at 1 h, 5 μM / remaining at 4 h, 5 μM: rat plasma (sodium or lithium heparin). How it is done: as §1, §2, §3, §4, §5, §6, §7
The next data set has as its target T1, RXFP1 (Homo sapiens, UniProt Q9HBX9).
T1 sequence (Q9HBX9 1-757): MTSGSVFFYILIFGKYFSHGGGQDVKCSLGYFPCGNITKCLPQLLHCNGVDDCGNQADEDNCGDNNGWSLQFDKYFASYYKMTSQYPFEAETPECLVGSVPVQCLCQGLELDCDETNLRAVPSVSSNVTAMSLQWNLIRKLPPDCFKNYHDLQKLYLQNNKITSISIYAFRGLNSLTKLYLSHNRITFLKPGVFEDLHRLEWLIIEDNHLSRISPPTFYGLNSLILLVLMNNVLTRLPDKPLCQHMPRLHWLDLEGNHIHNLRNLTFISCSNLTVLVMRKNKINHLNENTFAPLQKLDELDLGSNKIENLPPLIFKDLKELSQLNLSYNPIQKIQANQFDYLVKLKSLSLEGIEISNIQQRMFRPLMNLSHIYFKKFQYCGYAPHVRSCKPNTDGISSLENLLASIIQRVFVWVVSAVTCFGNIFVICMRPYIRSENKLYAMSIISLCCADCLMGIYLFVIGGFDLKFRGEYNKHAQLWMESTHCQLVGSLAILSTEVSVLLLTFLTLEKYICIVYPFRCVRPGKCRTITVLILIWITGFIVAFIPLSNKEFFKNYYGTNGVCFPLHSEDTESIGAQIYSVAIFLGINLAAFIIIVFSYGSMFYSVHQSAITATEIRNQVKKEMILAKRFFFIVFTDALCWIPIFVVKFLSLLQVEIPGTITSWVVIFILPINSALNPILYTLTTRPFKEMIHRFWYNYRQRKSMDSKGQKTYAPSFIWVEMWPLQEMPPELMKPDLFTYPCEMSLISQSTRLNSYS
The data set is described as follows: OVCAR5 cAMP assay (RXFP1 agonist activity, HTRF). As to conditions: for Emax: OVCAR-5, read-out: cAMP assay in OVCAR 5 cells Emax, maximal intracellular cAMP relative to H2-relaxin in the same test occasion. For orientation: cAMP levels reflect the balance of adenylyl cyclase and phosphodiesterase activity.

[3] abbreviates: acetate buffer, pH 4.5, read-out: Solubility Acetate buffer pH 4.5.
The mark [4] stands for this setting: phosphate buffer, pH 7.4, read-out: Solubility phosphate buffer pH 7.4.

Values after ≈ are worked out from the molar mass of the structure shown. Read-outs that look alike come from different tables or passages of the source. Non-standard residues stand in square brackets, D forms with d. Residues, ends and D or L forms follow the SMILES beside them. Nle = CCCC[C@H](N)C(=O)O; Aib = CC(C)(N)C(=O)O

In general, solubility refers to the dissolved amount per volume that the medium holds. Usually Emax stands for the greatest response seen or fitted, relative to the assay's reference. As usually defined, the EC50 is the concentration that produces a half-maximal response.

Consider `CC[C@H](C)[C@H](NC(=O)[C@H](CCC(N)=O)NC(=O)[C@H](C)NC(=O)[C@H](CCCNC(=N)N)NC(=O)[C@@H](NC(=O)[C@H](CCCCN)NC(=O)[C@H](CCC(=O)O)NC(=O)[C@H](CCCNC(=N)N)NC(=O)CNC(=O)[C@H](CCC(=O)O)NC(=O)[C@H](CC(C)C)NC(C)=O)C(C)C)C(=O)NC(C)(C)C(=O)NC(C)(C)C(=O)N[C@@H](CCC(=O)O)C(=O)NCC(=O)N[C@@H](CCSC)C(=O)N[C@@H](CO)C(=O)N[C@H](C(=O)N[C@@H](Cc1c[nH]c2ccccc12)C(=O)N[C@@H](CO)C(=O)NC(C)(C)C(=O)N[C@@H](CCCNC(=N)N)C(=O)N[C@@H](CCCCN)C(=O)N[C@@H](CCCCN)C(N)=O)[C@@H](C)O` [compound 4] (Ac-LEGREKVRAQI[Aib][Aib]EGMSTWS[Aib]RKK-NH2), for which the solubility in data set [1] (setting [3]) is at least 6100 µg/mL. Besides, the solubility in data set [1] (setting [4]) is at least 5800 µg/mL. Further, in data set [2], the “Human Plasma stability % remaining, T = 0” value came out at 100%; the share remaining at 1 h, 5 μM came out at 95%; the share remaining at 4 h, 5 μM turned out to be 93%. Further, in “Stability in rat plasma”, the “Rat plasma stability % remaining, T = 0” value is listed as 100%; the amount remaining at 1 h, 5 μM is 91%; the share remaining at 4 h, 5 μM is 101%. At RXFP1, the Emax was 99%.

As to `CCCC[C@H](NC(=O)CNC(=O)[C@H](CCC(=O)O)NC(=O)C(C)(C)NC(=O)C(C)(C)NC(=O)[C@@H](NC(=O)[C@H](CCCCNC(C)=O)NC(=O)[C@H](C)NC(=O)[C@H](CCCNC(=N)N)NC(=O)[C@@H](NC(=O)[C@H](CCCCN)NC(=O)[C@H](CCC(=O)O)NC(=O)[C@H](CCCNC(=N)N)NC(=O)CNC(=O)[C@H](CCC(=O)O)NC(=O)[C@H](CC(C)C)NC(C)=O)C(C)C)[C@@H](C)CC)C(=O)N[C@@H](CO)C(=O)N[C@H](C(=O)N[C@@H](Cc1c[nH]c2ccccc12)C(=O)N[C@@H](CO)C(=O)NC(C)(C)C(=O)N[C@@H](CCCNC(=N)N)C(=O)N[C@@H](CCCCN)C(=O)N[C@@H](CCCCNC(C)=O)C(N)=O)[C@@H](C)O` [compound 5] (Ac-LEGREKVRAK(Ac)I[Aib][Aib]EG[Nle]STWS[Aib]RKK(Ac)-NH2), the solubility in data set [1] (setting [3]) came to 4000 µg/mL (≈ 1400 µM). The solubility in data set [1] (setting [4]) is 4000 µg/mL (≈ 1400 µM). Also, in data set [2], the “Human Plasma stability % remaining, T = 0” value was 100%; the share remaining at 1 h, 5 μM came to 93%; the amount remaining at 4 h, 5 μM stood at 74%. Besides, in “Stability in rat plasma”, the “Rat plasma stability % remaining, T = 0” value is listed as 100%; the share remaining at 1 h, 5 μM was found to be 86%; the fraction remaining at 4 h, 5 μM is 60%. Moreover, the maximum response (Emax) at RXFP1 is 98%. The same molecule displayed an EC50 at RXFP1 (cAMP assay in OVCAR 5 cells EC50 (nM), OVCAR5 cells expressing endogenous RXFP1, cAMP by HTRF, 30 min at 37° C., 1 mM IBMX) of at most 10 nM.

These data come from patent publication US10988524B2, “Modified relaxin B chain peptides and their therapeutic use” (priority 2018, dated 2021).
